Source: patent US10577399B2, “Modified lantibiotics and methods of making and using the modified lantibiotics” (priority 2016, dated 2020)
Values after ≈ are worked out from the molar mass of the structure shown. Read-outs that look alike come from different tables or passages of the source. No end group written: not given here.

Columns and labels:
M. luteus ATCC 10240 [1] = assay: Deferred antagonism (overlay) assay, zone of inhibition; type: cell-based, Micrococcus luteus; conditions: relative to wild-type strain
Experimental: The deferred antagonism assay was performed as previously described^39. S. mutans strains were grown overnight in THyex broth at 37° C. The cultures were diluted to 0.1 OD OD600 and grown to mid-logarithmic phase before diluting to 0.05 OD600. Then, 2 μl of the cultures were spotted on THyex plates in duplicates of triplicates. The wild-type S. mutans JH1140 and S. mutans ΔmutA were used as positive and negative controls for activity, respectively. The plates were incubated for 18 hours in a candle jar at 37° C. After incubation, the strains were heat killed at 65° C. for 90 minutes. Fresh M. luteus grown overnight at 37° C. on THyex plates were used to inoculate pre-warmed THyex broth. The culture was grown to 0.6 to 0.8 OD before diluting to 0.2 OD600. The culture was further diluted 25-fold in melted (42° C.) THyex top agar. Approximately 5 mL of the top agar solution was spread on the heat killed bioassay plates and allowed to cool for 10 minutes. The plates were then placed in the incubator (at 37° C.) for 18 hours.
Streptococcus mutans ATCC 55676 (wild-type) and the mutants that were at an OD600 of 0.2 were spotted in triplicates on a pre-warmed THyex agar plate (150×15 mm) and allowed to dry. This assay was performed in this manner to ensure that each sample had the same colony size for comparing zones of inhibition. The plate was incubated for 24 hours then placed in an oven at 50° C. for thirty minutes to kill the bacteria before the indicator strain was overlaid. Heat killing the bacteria prevents any further antimicrobial compound production so that results seen are from single day incubation. Zone diameter was measured in millimeters across the plate and compared to wild-type (i.e. zone I for ATCC compared to zone I of Trp4Ala, etc.).

M. luteus ATCC 10240 [2] = type: cell-based, Micrococcus luteus; conditions: for M. luteus ATCC 10240 MIC / M. luteus ATCC 10240 MLC: Table 11
Experimental: (§1) Minimum Inhibitory Concentrations (MICs) were determined according to previously published protocol^31. A stock solution of the antibiotics tested was first suspended in 50% acetonitrile (ACN) at a concentration 640 μg/mL. This stock was subsequently diluted 2-fold until a final concentration 0.156 μg/mL was reached. Subsequently, 10 μl of each dilution was placed into a well on a 96 well microtiter plate. M. luteus ATCC 10240, S. pneumoniae, and B. subtilis PY79 were grown overnight in THyex at 37° C. Cultures were diluted in the morning to 0.1 OD600 and allowed to grow to 0.6 OD600. This culture was diluted a 100-fold in fresh THyex media and then 400 μl of this culture was added to 10 mL of fresh THyex. The suspension contains approximately 10^5 colony forming units (CFUs). The bacterial suspension (190 μL) was added to each well containing 10 μL of antibiotic suspension or solvent blank. […] Following the 15 minute pretreatment, 190 μL was added to each well as described above. The MIC is described as the […] concentration of antibiotic that prevented visible growth after 24 hours.
FIG. 11 illustrates the bioactivity of various core peptide mutants of mutacin 1130. The activity of the core mutant peptides is expressed as a ratio of the area of the zone of inhibition of each mutant strain to the area of the zone of inhibition of the wild-type strain against indicator strain of Micrococcus luteus. […] The deferred antagonism assay is an overlay assay of the indicator strain onto plates containing heat killed colonies of the mutacin producer strain after growing overnight. Core peptide mutants having inhibitory activity were isolated and the purified products were further evaluated by a standard minimum inhibitory concentration (MIC) assay.

S. aureus ATCC 25923 = assay: MIC/MLC assay against S. aureus; type: cell-based, Staphylococcus aureus; conditions: Table 11
S. pneumoniae ATCC 27336 = type: cell-based, Streptococcus pneumoniae; conditions: Table 11
Experimental: as §1, with “hours. […]” for “hours.”

C. accolens ATCC 49725 = assay: MIC/MLC assay against C. accolens ATCC 49725; type: cell-based; conditions: THyex broth with 1% Tween 80
C. accolens KPL 1818 = assay: MIC/MLC assay against C. accolens KPL 1818; type: cell-based; conditions: THyex broth with 1% Tween 80
[3] = Pharmacokinetics after intravenous dose in mice; type: in vivo; conditions: 2.5 mg/kg i. v., BALB/c mice; at 70 minutes
Experimental: The compounds were dissolved in normal saline for all pharmacokinetic studies. An extraction protocol was developed in vitro by the addition of each compound to commercially bought BALB/c mouse serum. The compounds were extracted by the addition of 70% ACN containing 0.1% TFA/30% methanol containing 0.4% formic acid. The extract was then analyzed by LC-MS using a TSQ Vantage Triple Quad mass spectrometer. A standard curve was generated for each compound using known dilutions of the compounds in serum, which was then extracted. The R-squared values for each standard exceeded 0.98. BALB/c mice were used to evaluate pharmacokinetics of the compounds in vivo. A 2.5 mg/kg i. v. dose was evaluated for native mutacin, R13A, S5G, and double mutant S5A:T14G (FIG. 12A). A polynomial second order was used to estimate the peak plasma concentration and half-life of the R13A. […] Possibly, the Dhb14 residue may protect the peptide from trypsin-like proteases in the blood. […] Thus, taking the dynamics of cell death into account and the pharmacokinetics of the R13A, the R13A in serum is above the inhibitory concentration for S. pneumonia long enough to kill the pathogen.

Row | S. aureus ATCC 25923 MIC (S. aureus ATCC 25923) [micrograms per milliliter] | S. pneumonia ATCC 27336 MIC (S. pneumoniae ATCC 27336) [micrograms per milliliter] | C. accolens ATCC 49725 MIC (C. accolens ATCC 49725) [micrograms per milliliter] | M. luteus ATCC 10240 MIC (M. luteus ATCC 10240 [2]) [micrograms per milliliter] | C. accolens KPL 1818 MIC (C. accolens KPL 1818) [micrograms per milliliter] | MIC (M. luteus ATCC 10240 [2]; ATCC 10240) [µg/mL] | Molecule | zone of inhibition / inhibitory activity in deferred antagonism assay (M. luteus ATCC 10240 [1]) | MIC (M. luteus ATCC 10240 [2]; Table 10, indicator strain Micrococcus luteus) [µg/mL] | activity relative to wild-type mutacin 1140 (M. luteus) (M. luteus ATCC 10240 [2]; purified variants) | S. aureus ATCC 25923 MLC (S. aureus ATCC 25923) [micrograms per milliliter] | S. pneumonia ATCC 27336 MLC (S. pneumoniae ATCC 27336) [micrograms per milliliter] | C. accolens ATCC 49725 MLC (C. accolens ATCC 49725) [micrograms per milliliter] | M. luteus ATCC 10240 MLC (M. luteus ATCC 10240 [2]) [micrograms per milliliter] | C. accolens KPL 1818 MLC (C. accolens KPL 1818) [micrograms per milliliter] | plasma level / clearance from blood [3]
1 | – | – | – | – | – | – | C=C1NC(=O)[C@H](Cc2c[nH]c3ccccc23)NC(=O)[C@H](NC(=O)[C@H](CCCCN)NC(=O)[C@@H](N)Cc2ccccc2)CSC[C@@H](C(=O)N[C@H]2C(=O)N3CCC[C@H]3C(=O)NCC(=O)N[C@H](C(=O)N[C@@H](C)C(=O)N[C@@H](CCCNC(=N)N)C(=O)N/C(=C\C)C(=O)NCC(=O)N[C@@H]3CSC[C@@H]4NC(=O)[C@H](Cc5ccc(O)cc5)NC(=O)[C@@H](CS/C=C\NC4=O)NC(=O)[C@H](CC(N)=O)NC(=O)[C@H](Cc4ccccc4)NC3=O)CS[C@H]2C)NC(=O)[C@H](C)NC1=O [Mutant Leu6Ala] | larger zone of inhibition | 0.0625 (≈ 0.0281 µM) | two-fold more active | – | – | – | – | – | –
2 | 16 | 0.5 | 1 | 0.125 | 1 | – | G15A*: core peptide mutant of mutacin 1140, Glycine 15 replaced by Alanine (FKSWSLCTPGCARTASFNSYCC; ends and bridges not checked; cysteine pairing not given here; UniProt O68586 42-63, looked up, variant G15A) | no change in activity | – | – | 16 | 0.5 | 1 | 0.125 | 2 | –
3 | – | – | – | – | – | – | C-terminal fluorescein conjugate of mutacin 1140: mu1140-COOH coupled to 5-(aminoacetamido)fluorescein at the C-terminus (FKSWSLCTPGCARTGSFNSYCC-{5‑(aminoacetamido)fluorescein}; ends and bridges not checked; UniProt O68586 42-63, looked up) | has the inhibitory activity | – | – | – | – | – | – | – | –
4 | – | – | – | – | – | – | CC(C)C[C@@H]1NC(=O)[C@H](C)NC(=O)[C@H](Cc2c[nH]c3ccccc23)NC(=O)C(NC(=O)[C@H](CCCCN)NC(=O)[C@@H](N)Cc2ccccc2)CSC[C@@H](C(=O)NC2C(=O)N3CCC[C@H]3C(=O)NCC(=O)N[C@H](C(=O)N[C@@H](C)C(=O)N[C@@H](CCCNC(=N)N)C(=O)NCC(=O)NCC(=O)NC3CSC[C@@H]4NC(=O)[C@H](Cc5ccc(O)cc5)NC(=O)[C@@H](CS/C=C\NC4=O)NC(=O)[C@H](CC(N)=O)NC(=O)[C@H](Cc4ccccc4)NC3=O)CSC2C)NC1=O (some centres unmarked) [S5A:T14G] | – | – | – | – | – | – | – | – | performed the worst
5 | >32 | 8 | >4 | 2 | >4 | – | S5G:R13A:T14A: core peptide mutant of mutacin 1140, positions 5, 13 and 14 replaced by Glycine, Alanine and Alanine (FKSWGLCTPGCAAAGSFNSYCC; ends and bridges not checked; cysteine pairing not given here; UniProt O68586 42-63, looked up, variant S5G R13A T14A) | – | – | – | >32 | >16 | >4 | 16 | >4 | –
6 | – | – | – | – | – | 0.125 (≈ 0.0566 µM) | C=C1NC(=O)[C@H](Cc2c[nH]c3ccccc23)NC(=O)[C@H](NC(=O)[C@H](C)NC(=O)[C@@H](N)Cc2ccccc2)CSC[C@@H](C(=O)N[C@H]2C(=O)N3CCC[C@H]3C(=O)NCC(=O)N[C@H](C(=O)N[C@@H](C)C(=O)N[C@@H](CCCNC(=N)N)C(=O)N/C(=C\C)C(=O)NCC(=O)N[C@@H]3CSC[C@@H]4NC(=O)[C@H](Cc5ccc(O)cc5)NC(=O)[C@@H](CS/C=C\NC4=O)NC(=O)[C@H](CC(N)=O)NC(=O)[C@H](Cc4ccccc4)NC3=O)CS[C@H]2C)NC(=O)[C@H](CC(C)C)NC1=O [Mutant Lys2Ala] | larger zone of inhibition | – | – | – | – | – | – | – | –
7 | >32 | 2 | >4 | 4 | >4 | – | S5T: core peptide mutant of mutacin 1140, Serine 5 replaced by Threonine (FKSWTLCTPGCARTGSFNSYCC; UniProt O68586 42-63, looked up, variant S5T) [Mutant S5T] | – | – | – | >32 | 2 | >4 | 4 | >4 | –
